The text below walks through data of PubChem BioAssay AID278 (DTP/NCI, 2004).

In the assay the test system is nude mice, A549 intrarenal xenograft, tumor weight change. As to the kind of experiment: NCI In Vivo Anticancer Drug Screen. Data for tumor model A549 Human Adenocarcinoma of Lung with characteristics of Type II Alveolar Epithelial cells (intrarenal inoculation) in NU/NU BALB/C (nude) mice. The settings on record: endpoint: mean tumor weight change, higher = larger tumour. An outline of the steps: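 Mice bearing transplantable tumors were treated and survival or tumor size recorded. Values are given as treated-group measurement divided by vehicle-control measurement (T/C).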

The mark [1] stands for this setting: dose: 150.0 mg/kg/injection, schedule: Q04DX003 (ip), vehicle: saline with Tween-80.

Values joined by “and” are separate entries in the source; they are usually repeats but may differ in a detail not shown here. Equal entries are not always repeated. Results filed as inconclusive are left out.

Consider `CO[C@H](/C(C)=C/C=C/C(C)=C/c1coc(C)n1)[C@H](C)[C@H]1C[C@@H](O)[C@@]2(C)O[C@H]2/C=C/[C@@H](C)[C@@H]2C[C@@H](CC(=O)O2)C[C@H]2O[C@@H]2C(=O)O1`, for which the T/C (dose: 0.07 mg/kg/injection, schedule: Q04DX003 (ip), vehicle: other) was 71 % of control; the T/C (dose: 0.12 mg/kg/injection, schedule: Q04DX003 (ip), vehicle: other) is 54 % of control; the T/C (dose: 0.13 mg/kg/injection, schedule: Q01DX009 (ip), vehicle: Klucel (hydroxypropylcellulose) (HPC)) was 54 % of control; the T/C (dose: 0.18 mg/kg/injection, schedule: Q04DX003 (ip), vehicle: Klucel (hydroxypropylcellulose) (HPC)) was 57 % of control; the T/C (dose: 0.2 mg/kg/injection, schedule: Q01DX009 (ip), vehicle: Klucel (hydroxypropylcellulose) (HPC)) is 15 % of control; the T/C (dose: 0.2 mg/kg/injection, schedule: Q04DX003 (ip), vehicle: other) was 86 % of control. The T/C (dose: 0.3 mg/kg/injection, schedule: Q01DX009 (ip), vehicle: Klucel (hydroxypropylcellulose) (HPC)) was 38 % of control; the T/C (dose: 0.3 mg/kg/injection, schedule: Q04DX003 (ip), vehicle: Klucel (hydroxypropylcellulose) (HPC)) is 41 % of control; the T/C (dose: 0.33 mg/kg/injection, schedule: Q04DX003 (ip), vehicle: other) is 21 % of control; the T/C (dose: 0.5 mg/kg/injection, schedule: Q04DX003 (ip), vehicle: Klucel (hydroxypropylcellulose) (HPC)) was 26 % of control; the T/C (dose: 0.83 mg/kg/injection, schedule: Q04DX003 (ip), vehicle: Klucel (hydroxypropylcellulose) (HPC)) is 21 % of control.
Consider `O=C(NC(Cc1ccc(I)cc1)C(=O)O)c1ccc(Br)cc1` (stereo not given), for which the T/C is 51 % of control (dose: 37.5 mg/kg/injection, schedule: Q04DX003 (ip), vehicle: other); 78 % of control (dose: 37.5 mg/kg/injection, schedule: Q04DX003 (ip), vehicle: sodium bicarbonate); 7 % of control (dose: 75.0 mg/kg/injection, schedule: Q04DX003 (ip), vehicle: other); 103 % of control (dose: 75.0 mg/kg/injection, schedule: Q04DX003 (ip), vehicle: sodium bicarbonate); 9 % of control (dose: 150.0 mg/kg/injection, schedule: Q04DX003 (ip), vehicle: other); 83 % of control (dose: 150.0 mg/kg/injection, schedule: Q04DX003 (ip), vehicle: sodium bicarbonate).
Consider `CC[C@@]1(O)C(=O)OCc2c1cc1n(c2=O)Cc2cc3c(N)cccc3nc2-1`, for which the T/C reads like this: (dose: 1.0 mg/kg/injection, schedule: Q04DX003 (ip), vehicle: saline with Tween-80) 3 % of control; (dose: 1.44 mg/kg/injection, schedule: Q04DX003 (ip), vehicle: saline with Tween-80) 1 % of control; (dose: 2.0 mg/kg/injection, schedule: Q04DX003 (ip), vehicle: saline with Tween-80) -8 % of control; (dose: 2.4 mg/kg/injection, schedule: Q04DX003 (ip), vehicle: saline with Tween-80) -64 % of control; (dose: 4.0 mg/kg/injection, schedule: Q04DX003 (ip), vehicle: saline with Tween-80) -68 % of control.
Regarding `O=C1c2ccccc2C(Cl)(c2ccc(Cl)cc2)c2ccc(Cl)cc21` (stereo not given), the T/C under setting [1] was 244 % of control.
`O=[N+]([O-])c1ccc(N(CCO)CCO)c2c1no[n+]2[O-]`: the T/C by setting is: (dose: 12.5 mg/kg/injection, schedule: Q04DX003 (ip), vehicle: saline with Tween-80) 53 % of control; (dose: 25.0 mg/kg/injection, schedule: Q04DX003 (ip), vehicle: saline with Tween-80) 83 % of control; (dose: 50.0 mg/kg/injection, schedule: Q04DX003 (ip), vehicle: saline with Tween-80) 34 % of control.
For the molecule `CC(=O)NO`, the T/C is, setting by setting: (dose: 150.0 mg/kg/injection, schedule: Q04DX003 (ip), vehicle: water) 83 % of control; (dose: 300.0 mg/kg/injection, schedule: Q04DX003 (ip), vehicle: water) 82 % of control; (dose: 600.0 mg/kg/injection, schedule: Q04DX003 (ip), vehicle: water) 109 % of control; (dose: 1200.0 mg/kg/injection, schedule: Q04DX003 (ip), vehicle: water) 66 % of control.
`O=S(=O)(CCCCl)SCCCCl`: the T/C was 81 % of control (dose: 40.0 mg/kg/injection, schedule: Q04DX003 (ip), vehicle: suspension in saline); 86 % of control (dose: 80.0 mg/kg/injection, schedule: Q04DX003 (ip), vehicle: suspension in saline); 105 % of control (dose: 160.0 mg/kg/injection, schedule: Q04DX003 (ip), vehicle: suspension in saline); 112 % of control (dose: 320.0 mg/kg/injection, schedule: Q04DX003 (ip), vehicle: suspension in saline).
For the molecule `C=C(CO)C(=O)OC1CC(=C)C2CC(O)C(=C)C2[C@H]2OC(=O)C(=C)C12` (stereo not given in full), the T/C is 64 % of control (dose: 2.36 mg/kg/injection, schedule: Q04DX003 (ip), vehicle: saline + alcohol); 99 % of control (dose: 4.72 mg/kg/injection, schedule: Q04DX003 (ip), vehicle: saline + alcohol); 86 % of control (dose: 8.75 mg/kg/injection, schedule: Q04DX003 (ip), vehicle: saline + alcohol).
On to `C=C1c2cccc(O)c2C(O)=C2C(=O)[C@]3(O)C(O)=C(C(N)=O)C(=O)[C@@H](N(C)C)[C@@H]3[C@@H](O)[C@H]12`, for which, where the note is “dose: 75.0 mg/kg/injection, schedule: Q04DX003 (ip), vehicle: Klucel (hydroxypropylcellulose) (HPC)”, the T/C was 96 % of control.
Consider `Cc1ccc(C2=CSC3=NCCN23)cc1Cl`, for which the T/C reads like this: (dose: 2.5 mg/kg/injection, schedule: Q04DX003 (ip), vehicle: suspension in saline) 88 % of control; (dose: 5.0 mg/kg/injection, schedule: Q04DX003 (ip), vehicle: saline) 119 % of control; (dose: 5.0 mg/kg/injection, schedule: Q04DX003 (ip), vehicle: suspension in saline) 60 % of control; (dose: 10.0 mg/kg/injection, schedule: Q04DX003 (ip), vehicle: suspension in saline) 44 % of control; (dose: 20.0 mg/kg/injection, schedule: Q04DX003 (ip), vehicle: saline) 104 % of control; (dose: 20.0 mg/kg/injection, schedule: Q04DX003 (ip), vehicle: suspension in saline) 102 % of control. Besides, the T/C (dose: 40.0 mg/kg/injection, schedule: Q04DX003 (ip), vehicle: saline) was 26 % of control.
Consider `COc1ccc2oc3c(ccc[n+]3C)c(=O)c2c1`, for which the T/C is, setting by setting: (dose: 100.0 mg/kg/injection, schedule: Q04DX003 (ip), vehicle: saline with Tween-80) 57 % of control; (dose: 200.0 mg/kg/injection, schedule: Q04DX003 (ip), vehicle: saline with Tween-80) 38 % of control; (dose: 400.0 mg/kg/injection, schedule: Q04DX003 (ip), vehicle: saline with Tween-80) 32 % of control.
In the case of `CCOC(=O)Nc1cc2c(c(N)n1)N=C(c1ccc3ccccc3c1)CN2`, the T/C is, setting by setting: (dose: 7.5 mg/kg/injection, schedule: Q04DX003 (ip), vehicle: saline with Tween-80) 82 % of control; (dose: 15.0 mg/kg/injection, schedule: Q04DX003 (ip), vehicle: saline with Tween-80) 113 % of control; (dose: 30.0 mg/kg/injection, schedule: Q04DX003 (ip), vehicle: saline with Tween-80) 63 % of control; (dose: 60.0 mg/kg/injection, schedule: Q04DX003 (ip), vehicle: saline with Tween-80) 55 % of control.
In the case of `O=C(NC(Cc1ccc(I)cc1)C(=O)O)c1cccc(Br)c1` (stereo not given), the T/C by setting is: (dose: 100.0 mg/kg/injection, schedule: Q04DX003 (ip), vehicle: Klucel (hydroxypropylcellulose) (HPC)) 99 % of control; (dose: 150.0 mg/kg/injection, schedule: Q04DX003 (ip), vehicle: Klucel (hydroxypropylcellulose) (HPC)) 35 % of control; (dose: 200.0 mg/kg/injection, schedule: Q04DX003 (ip), vehicle: Klucel (hydroxypropylcellulose) (HPC)) 45 % of control; (dose: 300.0 mg/kg/injection, schedule: Q04DX003 (ip), vehicle: Klucel (hydroxypropylcellulose) (HPC)) 35 % of control.
As to `c1ccc(OCC2CO2)c(OCC2CO2)c1` (stereo not given), the T/C is 89 % of control (dose: 75.0 mg/kg/injection, schedule: Q04DX003 (ip), vehicle: saline with Tween-80); -20 % of control under setting [1]; 9 % of control (dose: 300.0 mg/kg/injection, schedule: Q04DX003 (ip), vehicle: saline with Tween-80).
Consider `CC(C)(C[NH-])C[NH-].[Cl][Pt+2][Cl]`, for which the T/C was 40 % of control (dose: 1.5 mg/kg/injection, schedule: Q04DX003 (ip), vehicle: water); 70 % of control (dose: 3.0 mg/kg/injection, schedule: Q04DX003 (ip), vehicle: water); 62 % of control (dose: 6.0 mg/kg/injection, schedule: Q04DX003 (ip), vehicle: water); 52 % of control (dose: 12.0 mg/kg/injection, schedule: Q04DX003 (ip), vehicle: water).
Regarding `O=NNc1cccnc1`, the T/C is, setting by setting: (dose: 50.0 mg/kg/injection, schedule: Q04DX003 (ip), vehicle: water) 56 % of control and 75 % of control; (dose: 100.0 mg/kg/injection, schedule: Q04DX003 (ip), vehicle: water) 80 % of control.
